The target of this assay is Cdc7/ASK (Homo sapiens, UniProt O00311). Nature of the assay: Cdc7 Biochemical Assay Method 1: 384 well ELISA, whole protein substrate MCM2, antibody against Phospho MCM2 (S53). Further details: purchased. Conditions: 2 μM ATP, read-out: Biochemical Method 1 (pIC50) (converted). The essentials: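 MCM2 protein substrate was coated on nickel-chelate plates, then Cdc7/ASK was added with 2 μM ATP in 50 mM Tris-HCl pH 8.5, 10 mM MgCl2, 1 mM DTT, 4% DMSO, 90 min at room temperature. Phospho-MCM2 (S53) was detected by ELISA with an AP secondary and PNPP absorbance. IC50 was derived from % inhibition versus no-compound and no-enzyme controls.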
Chain of Cdc7/ASK (O00311 whole entry): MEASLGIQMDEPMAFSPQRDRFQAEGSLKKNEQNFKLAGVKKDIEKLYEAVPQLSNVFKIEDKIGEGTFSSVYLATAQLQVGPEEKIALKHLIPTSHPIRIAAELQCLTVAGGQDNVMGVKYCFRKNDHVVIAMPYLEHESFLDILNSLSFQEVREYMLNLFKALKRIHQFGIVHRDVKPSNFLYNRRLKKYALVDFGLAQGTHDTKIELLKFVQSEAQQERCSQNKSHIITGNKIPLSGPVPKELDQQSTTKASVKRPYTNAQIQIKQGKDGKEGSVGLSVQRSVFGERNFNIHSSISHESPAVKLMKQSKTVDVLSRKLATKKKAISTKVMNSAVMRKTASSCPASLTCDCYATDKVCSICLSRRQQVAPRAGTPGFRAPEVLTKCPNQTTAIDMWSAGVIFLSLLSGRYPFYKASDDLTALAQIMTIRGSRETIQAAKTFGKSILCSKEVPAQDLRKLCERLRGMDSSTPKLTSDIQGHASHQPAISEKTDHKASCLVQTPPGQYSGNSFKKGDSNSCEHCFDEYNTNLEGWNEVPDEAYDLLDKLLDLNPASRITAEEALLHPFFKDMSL
Chain of Cdc7/ASK (Q9UBU7 whole entry partner): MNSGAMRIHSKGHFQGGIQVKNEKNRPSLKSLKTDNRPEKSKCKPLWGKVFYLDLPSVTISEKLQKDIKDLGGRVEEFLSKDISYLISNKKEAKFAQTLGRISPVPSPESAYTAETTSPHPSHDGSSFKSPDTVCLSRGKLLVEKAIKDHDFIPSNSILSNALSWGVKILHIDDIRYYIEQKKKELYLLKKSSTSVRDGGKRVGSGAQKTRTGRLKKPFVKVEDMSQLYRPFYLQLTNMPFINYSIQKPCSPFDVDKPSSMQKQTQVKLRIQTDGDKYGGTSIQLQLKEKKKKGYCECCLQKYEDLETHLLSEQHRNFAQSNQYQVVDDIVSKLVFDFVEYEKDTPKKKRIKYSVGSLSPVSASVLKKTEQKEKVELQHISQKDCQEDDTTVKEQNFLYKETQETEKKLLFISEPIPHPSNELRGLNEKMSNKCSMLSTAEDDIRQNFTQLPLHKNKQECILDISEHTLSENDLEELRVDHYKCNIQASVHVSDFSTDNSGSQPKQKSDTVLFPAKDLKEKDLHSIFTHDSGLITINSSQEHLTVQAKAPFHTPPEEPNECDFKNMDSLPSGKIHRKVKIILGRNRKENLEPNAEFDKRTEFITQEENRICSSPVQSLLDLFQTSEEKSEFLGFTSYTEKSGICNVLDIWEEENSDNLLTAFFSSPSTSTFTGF
On the technique in general: An ELISA detects its analyte on a solid surface through an enzyme-linked reagent.

`O=c1[nH]c(-c2ccnc(F)c2)nc(N2CCCC(F)(F)C2)c1Cl` [Compound 90, 5-chloro-4-(3,3-difluoro-1-piperidyl)-2-(2-fluoro-4-pyridyl)-1H-pyrimidin-6-one]: the IC50 is 0.851 nM.
Next, `C[C@H]1CN(c2nc(-c3ccncc3)[nH]c(=O)c2Cl)CCN1` [Compound 130]: 2.57 nM; `O=c1[nH]c(-c2ccncc2)nc(N2CCN[C@H](C(F)(F)F)C2)c1Cl` [Compound 139]: 9.55 nM; `O=c1[nH]c(-c2ccncc2)nc(N2CCN(CC(F)F)CC2)c1Cl` [Compound 147]: 4.27 nM.
Consider `CC(C)[C@H]1CN(c2nc(-c3ccnc(F)c3)[nH]c(=O)c2Cl)CCN1` [Compound 170], for which the IC50 was 1.1 nM.
Next, `O=c1[nH]c(-c2ccncc2)nc(N2CCN[C@@H](C(F)(F)F)C2)c1Cl` [Compound 180]: 1.45 nM; `CC(C)(C)[C@H]1CN(c2nc(-c3ccncc3)[nH]c(=O)c2F)CCN1` [Compound 185]: 0.776 nM; `O=c1[nH]c(-c2ccncc2)nc(N2CCCOCC2)c1Cl` [Compound 186]: 3.09 nM.
Next, `CC(C)[C@H]1CN(c2nc(-c3ccncc3)[nH]c(=O)c2F)CCN1` [Compound 308]: 0.794 nM.
Next, `O=c1[nH]c(-c2ccnc(F)c2)nc(N2CCN[C@@H](C(F)(F)F)C2)c1Cl` [Compound 314]: 1.12 nM; `O=c1[nH]c(-c2ccnc(F)c2)nc(N2CCOCC2)c1Cl` [Compound 316]: 1.32 nM.
Regarding `O=c1[nH]c(-c2ccnc(F)c2)nc(N2CCNCC2)c1Cl` [Compound 360], the IC50 was 1.51 nM.
Next, `NC[C@H]1CCCN(c2nc(-c3ccnc(F)c3)[nH]c(=O)c2Cl)C1` [Compound 362]: 1.66 nM; `NC[C@@H]1CCCN(c2nc(-c3ccnc(F)c3)[nH]c(=O)c2Cl)C1` [Compound 363]: 4.68 nM; `C[C@@H]1CNCCN1c1nc(-c2ccncc2)[nH]c(=O)c1Cl` [Compound 364]: 0.389 nM.

The values above are taken from patent US10919896B2, “Preparation and uses of pyrimidinone derivatives” (Cancer Research Technology Limited, priority 2016, dated 2021).
